What all share (assay type): biochemical
Test [1] deals with T1, recombinant alpha-glucosidase II (murine full-length glucosidase II, alpha and beta subunits, Glu 2) (Mus musculus, UniProt Q8BHN3).
T1 construct: made in house; host or cells: HEK-293T cells transduced with BacMam viruses (75% alpha, 25% beta); protein harvested from culture supernatant
The test is described as follows: Alpha-glucosidase II assay (4-methylumbelliferyl-alpha-D-pyranoside substrate, fluorescence). The conditions noted are these: Glucosidase 2; read-out: Glu2 IC50.

The target in test [2] is T2, recombinant human GBA (beta-glucocerebrosidase) (Homo sapiens, UniProt P04062).
T2 sequence (P04062 40-536): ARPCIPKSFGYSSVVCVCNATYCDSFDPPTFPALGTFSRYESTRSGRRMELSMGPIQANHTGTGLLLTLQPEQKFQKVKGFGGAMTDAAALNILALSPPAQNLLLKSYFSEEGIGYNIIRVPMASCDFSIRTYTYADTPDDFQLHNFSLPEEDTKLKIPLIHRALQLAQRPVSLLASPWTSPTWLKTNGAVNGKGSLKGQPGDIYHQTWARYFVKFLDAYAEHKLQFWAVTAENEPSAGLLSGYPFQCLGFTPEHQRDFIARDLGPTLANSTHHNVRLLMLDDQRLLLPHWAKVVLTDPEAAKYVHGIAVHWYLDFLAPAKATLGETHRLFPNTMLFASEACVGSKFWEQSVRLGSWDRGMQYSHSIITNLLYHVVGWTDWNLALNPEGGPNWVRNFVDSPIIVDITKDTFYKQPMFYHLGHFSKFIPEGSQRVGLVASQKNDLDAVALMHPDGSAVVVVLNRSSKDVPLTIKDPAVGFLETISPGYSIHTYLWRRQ
The test is described as follows: Beta-glucocerebrosidase (GBA, glucosylceramidase) assay (4-methylumbelliferyl-beta-D-pyranoside substrate, fluorescence). Put shortly: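 IC50 by four-parameter fit of percent inhibition, with product fluorescence (365/440 nm) read after a glycine/NaOH pH 10 stop. Compound and commercial recombinant human enzyme were incubated 60 min at 37 °C before a further 60 min at 37 °C with 4-methylumbelliferyl-beta-D-pyranoside substrate.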

Test [3] concerns the target rat sucrase (partially purified alpha-glucosidase from intestinal rat powder) (Rattus norvegicus, UniProt P23739). Nature of the test: Intestinal alpha-glucosidase assay, sucrose substrate (Glucose GO Kit). In outline: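 Partially purified alpha-glucosidase from rat intestinal powder was preincubated 60 min at 37 °C with serial compound dilutions, then given maltose or sucrose and incubated 30 min at 37 °C.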

Test [4] deals with recombinant human GAA (acid alpha-glucosidase) (Homo sapiens, UniProt P10253). Nature of the test: Acid alpha-glucosidase (GAA) assay (4-methylumbelliferyl-alpha-D-pyranoside substrate, fluorescence). Put shortly:
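IC50 from 4-PL curve fit of percent inhibition, based on fluorescence (365/440 nm) of released methylumbelliferone relative to uninhibited enzyme. Compound dilutions and human GAA incubated 60 min, 37 °C, before 20 min substrate reaction at 37 °C, quenched at pH 10.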

T1 sequence (O08795 15-521): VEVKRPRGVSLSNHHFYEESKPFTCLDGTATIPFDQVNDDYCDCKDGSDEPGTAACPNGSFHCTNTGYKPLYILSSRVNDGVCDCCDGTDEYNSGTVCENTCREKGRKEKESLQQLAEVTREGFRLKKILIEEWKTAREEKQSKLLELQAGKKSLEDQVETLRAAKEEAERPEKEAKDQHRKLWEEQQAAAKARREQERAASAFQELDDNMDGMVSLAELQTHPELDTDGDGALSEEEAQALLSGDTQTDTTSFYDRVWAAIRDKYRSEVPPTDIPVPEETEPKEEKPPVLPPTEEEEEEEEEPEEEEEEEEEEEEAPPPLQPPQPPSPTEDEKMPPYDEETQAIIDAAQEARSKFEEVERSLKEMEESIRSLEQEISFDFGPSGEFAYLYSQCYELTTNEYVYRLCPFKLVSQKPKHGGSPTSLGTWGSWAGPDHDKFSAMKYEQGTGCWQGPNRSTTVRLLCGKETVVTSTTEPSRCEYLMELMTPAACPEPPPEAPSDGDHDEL
T1 sequence (Q8BHN3 33-944): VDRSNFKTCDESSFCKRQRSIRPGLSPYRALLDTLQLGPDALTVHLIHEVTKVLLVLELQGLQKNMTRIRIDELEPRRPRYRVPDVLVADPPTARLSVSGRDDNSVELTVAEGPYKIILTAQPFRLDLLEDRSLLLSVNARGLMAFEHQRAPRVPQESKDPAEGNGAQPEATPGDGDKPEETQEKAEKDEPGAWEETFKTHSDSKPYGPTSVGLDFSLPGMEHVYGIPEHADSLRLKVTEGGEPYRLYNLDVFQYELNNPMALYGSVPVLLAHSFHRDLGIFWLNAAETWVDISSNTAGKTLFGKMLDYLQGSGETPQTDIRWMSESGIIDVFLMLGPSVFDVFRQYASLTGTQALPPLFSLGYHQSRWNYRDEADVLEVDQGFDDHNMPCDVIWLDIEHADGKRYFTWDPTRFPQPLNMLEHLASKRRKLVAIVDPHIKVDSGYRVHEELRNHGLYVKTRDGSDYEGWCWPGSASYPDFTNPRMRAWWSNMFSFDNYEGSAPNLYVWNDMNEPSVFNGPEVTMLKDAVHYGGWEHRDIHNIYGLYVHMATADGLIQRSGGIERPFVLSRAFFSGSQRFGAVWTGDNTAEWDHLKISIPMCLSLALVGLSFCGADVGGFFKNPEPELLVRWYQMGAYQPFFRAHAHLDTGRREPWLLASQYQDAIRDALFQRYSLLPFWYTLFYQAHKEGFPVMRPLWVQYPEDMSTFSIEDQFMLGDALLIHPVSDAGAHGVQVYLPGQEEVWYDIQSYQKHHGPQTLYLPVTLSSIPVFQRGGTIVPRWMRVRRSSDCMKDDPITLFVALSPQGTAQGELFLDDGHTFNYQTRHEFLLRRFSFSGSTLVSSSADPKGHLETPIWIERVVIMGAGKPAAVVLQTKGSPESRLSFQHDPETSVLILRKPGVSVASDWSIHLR
Sequence of rat sucrase (partially purified alpha-glucosidase from intestinal rat powder) (P23739 whole entry): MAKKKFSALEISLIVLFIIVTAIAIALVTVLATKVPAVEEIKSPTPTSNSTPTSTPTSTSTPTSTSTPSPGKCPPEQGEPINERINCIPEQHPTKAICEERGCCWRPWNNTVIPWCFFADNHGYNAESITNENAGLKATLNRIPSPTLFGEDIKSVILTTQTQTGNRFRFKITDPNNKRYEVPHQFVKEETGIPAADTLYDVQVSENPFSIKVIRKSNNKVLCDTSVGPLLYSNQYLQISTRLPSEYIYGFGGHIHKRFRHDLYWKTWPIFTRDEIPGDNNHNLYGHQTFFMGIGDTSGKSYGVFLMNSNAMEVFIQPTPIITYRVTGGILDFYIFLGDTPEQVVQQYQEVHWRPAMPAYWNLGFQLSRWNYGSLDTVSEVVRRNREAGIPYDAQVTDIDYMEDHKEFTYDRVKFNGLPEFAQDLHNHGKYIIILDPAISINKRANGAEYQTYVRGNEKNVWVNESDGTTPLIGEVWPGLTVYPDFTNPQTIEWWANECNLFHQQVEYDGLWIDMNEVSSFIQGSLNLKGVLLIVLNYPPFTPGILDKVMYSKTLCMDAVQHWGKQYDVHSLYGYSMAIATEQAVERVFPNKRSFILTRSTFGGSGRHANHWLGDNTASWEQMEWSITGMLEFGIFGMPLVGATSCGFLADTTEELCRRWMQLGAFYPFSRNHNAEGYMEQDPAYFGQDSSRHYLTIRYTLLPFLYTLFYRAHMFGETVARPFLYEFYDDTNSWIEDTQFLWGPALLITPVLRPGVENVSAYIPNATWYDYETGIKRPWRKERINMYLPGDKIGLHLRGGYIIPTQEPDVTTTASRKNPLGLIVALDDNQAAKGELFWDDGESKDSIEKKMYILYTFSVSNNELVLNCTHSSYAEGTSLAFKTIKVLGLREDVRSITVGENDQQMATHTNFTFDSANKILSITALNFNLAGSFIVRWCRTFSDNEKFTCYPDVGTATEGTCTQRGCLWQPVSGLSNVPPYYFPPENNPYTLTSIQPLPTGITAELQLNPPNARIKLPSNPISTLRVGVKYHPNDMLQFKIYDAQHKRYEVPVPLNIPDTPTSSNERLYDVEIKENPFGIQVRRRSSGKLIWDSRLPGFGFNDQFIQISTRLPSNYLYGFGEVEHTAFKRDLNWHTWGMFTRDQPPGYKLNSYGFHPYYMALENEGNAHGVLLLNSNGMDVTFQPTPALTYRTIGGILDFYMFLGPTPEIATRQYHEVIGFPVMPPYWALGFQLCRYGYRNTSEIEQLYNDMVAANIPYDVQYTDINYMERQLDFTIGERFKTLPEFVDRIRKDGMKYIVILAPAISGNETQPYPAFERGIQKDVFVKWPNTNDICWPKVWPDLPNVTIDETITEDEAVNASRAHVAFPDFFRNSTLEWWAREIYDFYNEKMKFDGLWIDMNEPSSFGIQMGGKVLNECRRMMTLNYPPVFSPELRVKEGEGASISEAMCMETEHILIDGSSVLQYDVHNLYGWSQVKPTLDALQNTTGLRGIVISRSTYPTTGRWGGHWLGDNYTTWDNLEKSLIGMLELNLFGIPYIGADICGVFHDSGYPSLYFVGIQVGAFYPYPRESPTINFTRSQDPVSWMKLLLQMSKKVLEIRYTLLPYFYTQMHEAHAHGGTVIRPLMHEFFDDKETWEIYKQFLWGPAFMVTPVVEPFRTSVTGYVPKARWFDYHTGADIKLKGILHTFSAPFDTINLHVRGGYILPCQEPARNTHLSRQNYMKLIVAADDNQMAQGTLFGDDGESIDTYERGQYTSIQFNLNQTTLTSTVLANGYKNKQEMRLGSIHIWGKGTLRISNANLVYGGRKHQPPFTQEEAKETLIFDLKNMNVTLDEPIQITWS

Take `N#Cc1ccc(F)cc1NCCCCCCN1C[C@H](O)[C@@H](O)[C@H](O)[C@H]1CO` [Compound 1251, 4-fluoro-2-({6-[(2R,3R,4R,5S)-3,4,5-trihydroxy-2-(hydroxymethyl)piperidin-1-yl]hexyl}amino)benzonitrile]: the IC50 is 12 nM in test [1], 1410 nM in test [2], 38 nM in test [3] and 41 nM in test [4].

For `CN(C)Cc1ccc(NCCCCCCN2C[C@H](O)[C@@H](O)[C@H](O)[C@H]2CO)c(C#N)c1` [Compound 1257, 5-[(dimethylamino)methyl]-2-({6-[(2R,3R,4R,5S)-3,4,5-trihydroxy-2-(hydroxymethyl)piperidin-1-yl]hexyl}amino)benzonitrile], the IC50 in test [1] was 19 nM; in test [2] it was 6530 nM; in test [3], 70 nM; in test [4], 73 nM.

For the compound `Cc1cc(NCc2cccc(CN3C[C@H](O)[C@@H](O)[C@H](O)[C@H]3CO)c2)cc(-c2cccnn2)c1` [Compound 1034, (2R,3R,4R,5S)-2-(hydroxymethyl)-1-{[3-({[3-methyl-5-(pyridazin-3-yl)phenyl]amino}methyl)phenyl]methyl}piperidine-3,4,5-triol], the IC50 turned out to be 10000 nM in test [1], 91900 nM in test [2], 57 nM in test [3] and 2710 nM in test [4].

Regarding `CC#Cc1ccc(NCCCCCCN2C[C@H](O)[C@@H](O)[C@H](O)[C@H]2CO)c([N+](=O)[O-])c1` [Compound 1290, (2R,3R,4R,5S)-2-(hydroxymethyl)-1-(6-{[2-nitro-4-(prop-1-yn-1-yl)phenyl]amino}hexyl)piperidine-3,4,5-triol], the IC50 was 1.2 nM in test [1], 175 nM in test [2], less than 10 nM in test [3] and 21 nM in test [4].

In the case of `NC(=O)CCN(CCNc1ccc(-c2ncccn2)cc1[N+](=O)[O-])CCN1C[C@H](O)[C@@H](O)[C@H](O)[C@H]1CO` [Compound 1226, 3-[(2-{[2-nitro-4-(pyrimidin-2-yl)phenyl]amino}ethyl)({2-[(2R,3R,4R,5S)-3,4,5-trihydroxy-2-(hydroxymethyl)piperidin-1-yl]ethyl})amino]propanamide], the IC50 in test [1] was determined as 1350 nM; in test [2], 3210 nM; in test [3] it was 793 nM; in test [4], 20900 nM.

As for `O=[N+]([O-])c1cc(Br)ccc1NCc1ccc(CN2C[C@H](O)[C@@H](O)[C@H](O)[C@H]2CO)cc1` [Compound 1030, (2R,3R,4R,5S)-1-[(4-{[(4-bromo-2-nitrophenyl)amino]methyl}phenyl)methyl]-2-(hydroxymethyl)piperidine-3,4,5-triol], the IC50 in test [1] is less than 1 nM; in test [2], 32300 nM; in test [3] it was less than 1 nM; in test [4] it was 135 nM.

For the compound `CS(C)=NS(=O)(=O)c1cc(-c2ncccn2)ccc1NCCCCCCN1C[C@H](O)[C@@H](O)[C@H](O)[C@H]1CO` [Compound 1247, N-(dimethyl-2-sulfanylidene)-5-(pyrimidin-2-yl)-2-({6-[(2R,3R,4R,5S)-3,4,5-trihydroxy-2-(hydroxymethyl)piperidin-1-yl]hexyl}amino)benzene-1-sulfonamide], the IC50 was 6 nM in test [1], 11800 nM in test [2], 216 nM in test [3] and 53 nM in test [4].

For `OC[C@@H]1[C@@H](O)[C@H](O)[C@@H](O)CN1CCCCCCNc1ccc(-c2ncccn2)cc1C(F)(F)F` [Compound 1258, (2R,3R,4R,5S)-2-(hydroxymethyl)-1-(6-{[4-(pyrimidin-2-yl)-2-(trifluoromethyl)phenyl]amino}hexyl)piperidine-3,4,5-triol], the half-inhibitory concentration (IC50) was 31 nM in test [1], 1350 nM in test [2], 108 nM in test [3] and 32 nM in test [4].

As for `COc1ccc(C#CCCCCCN2C[C@H](O)[C@@H](O)[C@H](O)[C@H]2CO)cc1` [Compound 1338, (2R,3R,4R,5S)-2-(hydroxymethyl)-1-[7-(4-methoxyphenyl)hept-6-yn-1-yl]piperidine-3,4,5-triol], the IC50 was 109 nM in test [1], 9440 nM in test [2], 371 nM in test [3] and 860 nM in test [4].

Consider `CS(=O)(=O)c1cc(NCc2cccc(CN3C[C@H](O)[C@@H](O)[C@H](O)[C@H]3CO)c2)cc(N2CCOCC2)c1` [Compound 1036, (2R,3R,4R,5S)-2-(hydroxymethyl)-1-{[3-({[3-methanesulfonyl-5-(morpholin-4-yl)phenyl]amino}methyl)phenyl]methyl}piperidine-3,4,5-triol], for which the 50% inhibitory concentration (IC50) in test [1] was 49500 nM; in test [2], more than 100000 nM; in test [3], 219 nM; in test [4] it was 2760 nM.

On to `COCCCCCN(CCCNc1ccc(N=[N+]=[N-])cc1[N+](=O)[O-])CCCN1C[C@H](O)[C@@H](O)[C@H](O)[C@H]1CO` [Compound 1221, (2R,3R,4R,5S)-1-[3-({3-[(4-azido-2-nitrophenyl)amino]propyl}(5-methoxypentyl)amino)propyl]-2-(hydroxymethyl)piperidine-3,4,5-triol], for which the half-maximal inhibitory concentration (IC50) is 220 nM in test [1], 57 nM in test [2], 424 nM in test [3] and 4510 nM in test [4].

With `Cc1nc(=O)c2cc(-c3ncccn3)ccc2n1CCCCCCN1C[C@H](O)[C@@H](O)[C@H](O)[C@H]1CO` [Compound 1246, 2-methyl-6-(pyrimidin-2-yl)-1-{6-[(2R,3R,4R,5S)-3,4,5-trihydroxy-2-(hydroxymethyl)piperidin-1-yl]hexyl}-1,4-dihydroquinazolin-4-one], the half-maximal inhibitory concentration (IC50) was 4 nM in test [1], 21600 nM in test [2], more than 100000 nM in test [3] and 46 nM in test [4].

Take `[N-]=[N+]=Nc1ccc(NCCC(O)C(O)CCN2C[C@H](O)[C@@H](O)[C@H](O)[C@H]2CO)c([N+](=O)[O-])c1` (stereo partly drawn) [Compound 1270, (2R,3R,4R,5S)-1-{6-[(4-azido-2-nitrophenyl)amino]-3,4-dihydroxy-hexyl}-2-(hydroxymethyl)piperidine-3,4,5-triol]: the half-maximal inhibitory concentration (IC50) in test [1] came to 46 nM; in test [2] it was 81 nM; in test [3], 350 nM; in test [4], 190 nM.

Regarding `Nc1ccc(NCCn2cc(CCN3C[C@H](O)[C@@H](O)[C@H](O)[C@H]3CO)nn2)c([N+](=O)[O-])c1Cl` [Compound 1253, (2R,3R,4R,5S)-1-[2-(1-{2-[(4-amino-3-chloro-2-nitrophenyl)amino]ethyl}-1H-1,2,3-triazol-4-yl)ethyl]-2-(hydroxymethyl)piperidine-3,4,5-triol], the IC50 in test [1] is 225 nM; in test [2], more than 100000 nM; in test [3], 3440 nM; in test [4], 664 nM.

Regarding `Cc1cc(NCc2cccc(CN3C[C@H](O)[C@@H](O)[C@H](O)[C@H]3CO)c2)cc(N2CCOCC2)c1` [Compound 1031, (2R,3R,4R,5S)-2-(hydroxymethyl)-1-{[3-({[3-methyl-5-(morpholin-4-yl)phenyl]amino}methyl)phenyl]methyl}piperidine-3,4,5-triol], the half-inhibitory concentration (IC50) is 10700 nM in test [1], more than 100000 nM in test [2], 288 nM in test [3] and 5220 nM in test [4].

For the compound `CS(=O)(=O)c1cc(Br)cc(NCc2ccc(CN3C[C@H](O)[C@@H](O)[C@H](O)[C@H]3CO)cc2)c1` [Compound 1025, (2R,3R,4R,5S)-1-[(4-{[(3-bromo-5-methanesulfonylphenyl)amino]methyl}phenyl)methyl]-2-(hydroxymethyl)piperidine-3,4,5-triol], the half-inhibitory concentration (IC50) in test [1] was found to be 229 nM; in test [2], 38900 nM; in test [3] it was 2 nM; in test [4], 135 nM.

With `Cc1cc(NCc2cccc(CN3C[C@H](O)[C@@H](O)[C@H](O)[C@H]3CO)n2)cc(-c2ccco2)c1` [Compound 1334, (2R,3R,4R,5S)-1-{[6-({[3-(furan-2-yl)-5-methylphenyl]amino}methyl)pyridin-2-yl]methyl}-2-(hydroxymethyl)piperidine-3,4,5-triol], the IC50 in test [1] is more than 100000 nM; in test [2], more than 100000 nM; in test [3], 336 nM; in test [4] it was 714 nM.

A word on the IC50: it is the concentration needed to halve the response being measured.

Values taken from patent US20250197372A1 (priority 2020, published 2025).
